Measurements from ChEMBL document CHEMBL5724914, “Linking interpersonal differences in gut microbiota composition and drug biotransformation activity” (2024).
Where a SMILES comes first, the peptide text is derived from it. [ ]: non-standard residue; d: D form. pGlu = O=C1CC[C@@H](C(=O)O)N1; Thz = O=C(O)[C@@H]1CSCN1

How the values were obtained:
[1] = The drug is tested on Z-028 corresponding to mouse gut metagenome with ENA study accession number: PRJEB37062 and ENA sample accession number: ERS12561827 for biotransformation under anaerobic condition. The drug concentrations were measured over 9 timepoints collected between 0 and 24 hours of incubation by liquid-chromatography-coupled mass spectrometry (LC–MS); details: 2 µM
[2] = The drug is tested on Z-026 corresponding to metagenome with ENA study accession number: PRJEB37062 and ENA sample accession number: ERS12561825 for biotransformation under anaerobic condition. The drug concentrations were measured over 9 timepoints collected between 0 and 24 hours of incubation by liquid-chromatography-coupled mass spectrometry (LC–MS); details: 2 µM
[3] = The drug is tested on Z-017 corresponding to mouse gut metagenome with ENA study accession number: PRJEB37062 and ENA sample accession number: ERS12561816 for biotransformation under anaerobic condition. The drug concentrations were measured over 9 timepoints collected between 0 and 24 hours of incubation by liquid-chromatography-coupled mass spectrometry (LC–MS); details: 2 µM
[4] = The drug is tested on Z-012 corresponding to metagenome with ENA study accession number: PRJEB37062 and ENA sample accession number: ERS12561812 for biotransformation under anaerobic condition. The drug concentrations were measured over 9 timepoints collected between 0 and 24 hours of incubation by liquid-chromatography-coupled mass spectrometry (LC–MS); details: 2 µM
[5] = The drug is tested on Z-006 corresponding to mouse gut metagenome with ENA study accession number: PRJEB37062 and ENA sample accession number: ERS12561806 for biotransformation under anaerobic condition. The drug concentrations were measured over 9 timepoints collected between 0 and 24 hours of incubation by liquid-chromatography-coupled mass spectrometry (LC–MS); details: 2 µM
[6] = The drug is tested on Z-003 corresponding to pig gut metagenome with ENA study accession number: PRJEB37062 and ENA sample accession number: ERS12561803 for biotransformation under anaerobic condition. The drug concentrations were measured over 9 timepoints collected between 0 and 24 hours of incubation by liquid-chromatography-coupled mass spectrometry (LC–MS); details: 2 µM
[7] = The drug is tested on WLS-310 corresponding to human gut metagenome with ENA study accession number: PRJEB37062 and ENA sample accession number: ERS12561785 for biotransformation under anaerobic condition. The drug concentrations were measured over 9 timepoints collected between 0 and 24 hours of incubation by liquid-chromatography-coupled mass spectrometry (LC–MS); details: 2 µM
[8] = The drug is tested on WLS-240 corresponding to human gut metagenome with ENA study accession number: PRJEB37062 and ENA sample accession number: ERS12561773 for biotransformation under anaerobic condition. The drug concentrations were measured over 9 timepoints collected between 0 and 24 hours of incubation by liquid-chromatography-coupled mass spectrometry (LC–MS); details: 2 µM
[9] = human gut metagenome, 24 h, 2 µM
[10] = human gut metagenome, 24 h, 2 µM; remark: listed apart in the source
[11] = human gut metagenome, 24 h, 2 µM; remark: listed apart in the source
[12] = human gut metagenome, 24 h, 2 µM; remark: listed apart in the source
[13] = human gut metagenome, 24 h, 2 µM; remark: listed apart in the source
[14] = human gut metagenome, 24 h, 2 µM; remark: listed apart in the source
[15] = human gut metagenome, 24 h, 2 µM; remark: listed apart in the source
[16] = human gut metagenome, 24 h, 2 µM; remark: listed apart in the source
[17] = human gut metagenome, 24 h, 2 µM; remark: listed apart in the source
[18] = human gut metagenome, 24 h, 2 µM; remark: listed apart in the source
[19] = human gut metagenome, 24 h, 2 µM; remark: listed apart in the source
[20] = human gut metagenome, 24 h, 2 µM; remark: listed apart in the source
Also: call rule not given here.

| Structure (SMILES) | Bacterial Biotransformation [1] | Bacterial Biotransformation [2] | Bacterial Biotransformation [3] | Bacterial Biotransformation [4] | Bacterial Biotransformation [5] | Bacterial Biotransformation [6] | Bacterial Biotransformation [7] | Bacterial Biotransformation [8] | Bacterial Biotransformation [9] | Bacterial Biotransformation [10] | Bacterial Biotransformation [11] | Bacterial Biotransformation [12] | Bacterial Biotransformation [13] | Bacterial Biotransformation [14] | Bacterial Biotransformation [15] | Bacterial Biotransformation [16] | Bacterial Biotransformation [17] | Bacterial Biotransformation [18] | Bacterial Biotransformation [19] | Bacterial Biotransformation [20] |
| --- | --- | --- | --- | --- | --- | --- | --- | --- | --- | --- | --- | --- | --- | --- | --- | --- | --- | --- | --- | --- |
| CCC(COC(=O)c1cc(OC)c(OC)c(OC)c1)(c1ccccc1)N(C)C.O=C(O)/C=C\C(=O)O (stereo not drawn) | Compound metabolized | Compound NOT metabolized | Compound NOT metabolized | Compound NOT metabolized | Compound NOT metabolized | Compound NOT metabolized | Compound metabolized | Compound metabolized | Compound NOT metabolized | Compound NOT metabolized | Compound metabolized | Compound metabolized | Compound NOT metabolized | Compound metabolized | Compound NOT metabolized | Compound metabolized | Compound metabolized | Compound metabolized | Compound NOT metabolized | Compound metabolized |
| COc1ccc(CCN(C)CCCC(C#N)(c2ccc(OC)c(OC)c2)C(C)C)cc1OC (stereo not drawn) | Compound metabolized | Compound NOT metabolized | Compound NOT metabolized | Compound metabolized | Compound NOT metabolized | Compound metabolized | Compound metabolized | Compound metabolized | Compound metabolized | Compound metabolized | Compound metabolized | Compound metabolized | Compound NOT metabolized | Compound metabolized | Compound NOT metabolized | Compound metabolized | Compound metabolized | Compound metabolized | Compound NOT metabolized | Compound metabolized |
| CCCCCCOC(=O)/N=C(/N)c1ccc(NCc2nc3cc(C(=O)N(CCC(=O)OCC)c4ccccn4)ccc3n2C)cc1.CS(=O)(=O)O [DABIGATRAN ETEXILATE MESYLATE] | Compound NOT metabolized | Compound NOT metabolized | Compound NOT metabolized | Compound NOT metabolized | Compound NOT metabolized | Compound NOT metabolized | – | – | Compound NOT metabolized | Compound NOT metabolized | Compound NOT metabolized | – | – | – | – | – | – | – | – | Compound NOT metabolized |
| C[C@@H]1C[C@H]2[C@@H]3CCC4=CC(=O)C=C[C@]4(C)[C@@]3(F)[C@@H](O)C[C@]2(C)[C@@]1(O)C(=O)CO [DEXAMETHASONE] | Compound NOT metabolized | Compound NOT metabolized | Compound NOT metabolized | Compound metabolized | Compound NOT metabolized | Compound metabolized | Compound metabolized | – | Compound NOT metabolized | Compound NOT metabolized | Compound NOT metabolized | Compound NOT metabolized | Compound NOT metabolized | Compound NOT metabolized | Compound NOT metabolized | Compound NOT metabolized | Compound NOT metabolized | Compound NOT metabolized | Compound NOT metabolized | Compound NOT metabolized |
| O=c1[nH]c2ccccc2n1CCCN1CCC(n2c(=O)[nH]c3cc(Cl)ccc32)CC1 [DOMPERIDONE] | Compound NOT metabolized | Compound NOT metabolized | Compound NOT metabolized | Compound NOT metabolized | Compound NOT metabolized | Compound NOT metabolized | Compound NOT metabolized | Compound NOT metabolized | – | – | Compound NOT metabolized | Compound NOT metabolized | Compound NOT metabolized | Compound NOT metabolized | Compound NOT metabolized | Compound NOT metabolized | Compound NOT metabolized | Compound NOT metabolized | – | Compound NOT metabolized |
| O=C1CC[C@@H](C(=O)N2CSC[C@H]2C(=O)O)N1 [PIDOTIMOD] ([pGlu]-[Thz]-OH) | Compound NOT metabolized | – | Compound NOT metabolized | Compound NOT metabolized | Compound NOT metabolized | Compound NOT metabolized | – | Compound NOT metabolized | Compound metabolized | Compound NOT metabolized | Compound NOT metabolized | – | – | – | Compound NOT metabolized | Compound metabolized | Compound NOT metabolized | – | Compound NOT metabolized | Compound NOT metabolized |
| COC(=O)[C@H]1[C@H]2C[C@@H]3c4[nH]c5cc(OC)ccc5c4CCN3C[C@H]2C[C@@H](OC(=O)c2cc(OC)c(OC)c(OC)c2)[C@@H]1OC [RESERPINE] | Compound NOT metabolized | Compound NOT metabolized | Compound NOT metabolized | Compound NOT metabolized | Compound NOT metabolized | Compound NOT metabolized | Compound metabolized | Compound NOT metabolized | Compound metabolized | Compound NOT metabolized | Compound metabolized | Compound metabolized | Compound NOT metabolized | Compound metabolized | Compound NOT metabolized | Compound metabolized | – | – | Compound NOT metabolized | Compound NOT metabolized |
